Reference: US20060293307A1, “Oxazolidinone derivatives as antimicrobials” (priority 2002, published 2006)
≈ marks a conversion by molar mass, not a printed value. Where two headings read alike, the source gives them in different places.

Experiments:
H. influenzae βIac = experiment: MIC against Haemophilus strains; type: cell-based
Moraxella M6 = experiment: MIC, agar incorporation method; type: cell-based
139 = experiment: MIC, agar incorporation method; type: cell-based
How it was run: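 Doubling dilutions of compound in DMSO were incorporated into Mueller-Hinton agar; 10^4 CFU/spot inoculated from 0.5 McFarland suspensions and incubated 18 h (24 h for MRSN studies). MIC = lowest concentration without visible growth; valid only when ATCC reference strains gave in-range MICs.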

E. faecalis 5B (VRE) = experiment: MIC, agar incorporation method; type: cell-based
[1] = test system: M. avium intracellulare 1211/96; experiment: MIC against MAC strains, agar dilution; type: cell-based; conditions: S. No. 13 Mai-5, M. avium intracellulare 1211/96, Middle Brook 7H10 + OADC, 37° C., 14-21 days
[2] = test system: M. intracellulare ATCC 13950; experiment: MIC against MAC strains, agar dilution; type: cell-based; conditions: S. No. 06 Mi-1, M. intracellulare ATCC 13950, Middle Brook 7H10 + OADC, 37° C., 14-21 days
M. intracellulare F21/12 = experiment: MIC against MAC strains, agar dilution; type: cell-based; conditions: S. No. 08 Mi-3, M. intracellulare F21/12, Middle Brook 7H10 + OADC, 37° C., 14-21 days
M. tuberculosis M-168 = experiment: MIC against M. tuberculosis strains, agar dilution; type: cell-based, Mycobacterium tuberculosis; conditions: Middle Brook 7H10 + OADC, 37° C., 14-21 days
M. intracellulare B-78/3 = experiment: MIC against MAC strains, agar dilution; type: cell-based; conditions: S. No. 09 Mi-4, M. intracellulare B-78/3, Middle Brook 7H10 + OADC, 37° C., 14-21 days
M. tuberculosis SGPGI = experiment: MIC against M. tuberculosis strains, agar dilution; type: cell-based, Mycobacterium tuberculosis; conditions: S. No. 06 Mt-, Middle Brook 7H10 + OADC, 37° C., 14-21 days
[3] = test system: M. avium intracellulare 18/98; experiment: MIC against MAC strains, agar dilution; type: cell-based; conditions: S. No. 16 Mai-9, M. avium intracellulare 18/98, Middle Brook 7H10 + OADC, 37° C., 14-21 days
M. tuberculosis PC = experiment: MIC against M. tuberculosis strains, agar dilution; type: cell-based, Mycobacterium tuberculosis; conditions: Mycobacterium tuberculosis, S. No. 18 Mt-, Middle Brook 7H10 + OADC, 37° C., 14-21 days, read-out: MIC
[4] = test system: M. avium intracellulare 356/97; experiment: MIC against MAC strains, agar dilution; type: cell-based; conditions: S. No. 10 Mai-1, M. avium intracellulare 356/97, Middle Brook 7H10 + OADC, 37° C., 14-21 days
M. tuberculosis H37Ra = experiment: MIC against M. tuberculosis strains, agar dilution; type: cell-based, Mycobacterium tuberculosis; conditions: Mycobacterium tuberculosis, S. No. 24 Mt-, Middle Brook 7H10 + OADC, 37° C., 14-21 days, read-out: MIC
M. avium ATCC 49601 = experiment: MIC against MAC strains, agar dilution; type: cell-based, Mycobacterium avium; conditions: S. No. 01 Ma-1, M. avium ATCC 49601, Middle Brook 7H10 + OADC, 37° C., 14-21 days
[5] = test system: M. avium intracellulare 19/97; experiment: MIC against MAC strains, agar dilution; type: cell-based; conditions: S. No. 17 Mai-10, M. avium intracellulare 19/97, Middle Brook 7H10 + OADC, 37° C., 14-21 days
M. tuberculosis V-3093 = experiment: MIC against M. tuberculosis strains, agar dilution; type: cell-based, Mycobacterium tuberculosis; conditions: Mycobacterium tuberculosis, V3093, S. No. 14 Mt-, Middle Brook 7H10 + OADC, 37° C., 14-21 days, read-out: MIC
M. tuberculosis M-149 = experiment: MIC against M. tuberculosis strains, agar dilution; type: cell-based, Mycobacterium tuberculosis; conditions: Middle Brook 7H10 + OADC, 37° C., 14-21 days
M. tuberculosis ATCC = experiment: MIC against M. tuberculosis strains, agar dilution; type: cell-based, Mycobacterium tuberculosis; conditions: S. No. 01.Mt-, Middle Brook 7H10 + OADC, 37° C., 14-21 days
[6] = test system: M. intracellulare ATCC 35761; experiment: MIC against MAC strains, agar dilution; type: cell-based; conditions: S. No. 07 Mi-2, M. intracellulare ATCC 35761, Middle Brook 7H10 + OADC, 37° C., 14-21 days
[7] = S. No. 19, E. faecalis 5B (VRE)
[8] = Mycobacterium avium, read-out: MIC
[9] = S. No. 60, Moraxella M6, read-out: MIC
[10] = Mycobacterium tuberculosis, read-out: MIC
[11] = Enterococcus faecalis, S. No. 19, E. faecalis 5B (VRE), read-out: MIC
[12] = Haemophilus influenzae, s. No. 3, H. influenzae βIac, read-out: MIC

Compound: CC(=O)NC[C@H]1CN(c2ccc(N3CCN(c4ccc([N+](=O)[O-])s4)CC3)cc2)C(=O)O1 [Compound No. 6, (S)—N-[[3-[4-[N-1-(5-nitro-2-thienyl)piperazinyl]-phenyl]-2-oxo-5-oxazolidinyl]-methyl]-acetamide]
- MIC (H. influenzae βIac; s. No. 3, H. influenzae βIac): 8 µg/mL (≈ 18 µM)

Compound: CN[C@H](CC(C)C)C(=O)N[C@H]1C(=O)N[C@@H](CC(N)=O)C(=O)N[C@H]2C(=O)N[C@H]3C(=O)N[C@H](C(=O)N[C@H](C(=O)O)c4cc(O)cc(O)c4-c4cc3ccc4O)[C@H](O)c3ccc(c(Cl)c3)Oc3cc2cc(c3O[C@@H]2O[C@H](CO)[C@@H](O)[C@H](O)[C@H]2O[C@H]2C[C@](C)(N)[C@H](O)[C@H](C)O2)Oc2ccc(cc2Cl)[C@H]1O [Vancomycin, reference compound]
- MIC (Moraxella M6; Moraxella, M6): > 8 µg/mL
- MIC 139: > 16 µg/mL
- MIC (E. faecalis 5B (VRE); Enterococcus faecalis, VRE): > 16 µg/mL

Compound: CC(=O)NC[C@H]1CN(c2ccc(N3CCN(c4cc(C(OC(C)=O)OC(C)=O)sc4[N+](=O)[O-])CC3)c(F)c2)C(=O)O1 [Compound No. 5, (S)—N-[[3-[3-Fluoro-4-[4-{3-thienyl(2-nitro)-5-acetyloxy}methylacetate]-1-piperazinyl]phenyl]-2-oxo-5-oxazolidinyl]acetamide]
- MIC (Moraxella M6; S. No. 60, Moraxella M6): 2 µg/mL (≈ 3.37 µM)
- MIC (E. faecalis 5B (VRE); [7]): 1 µg/mL (≈ 1.68 µM)
- MIC (H. influenzae βIac; s. No. 3, H. influenzae βIac): >16 µg/mL

Compound: CC(=O)NC[C@H]1CN(c2ccc(N3CCN(c4ccc([N+](=O)[O-])s4)CC3)c(F)c2)C(=O)O1 [Compound No. 1, (S)—N-[[3-[3-Fluoro-4-[4-(5-nitro-2-thienyl)-1-piperazinyl]phenyl]-2-oxo-5-oxazolidinyl]methyl]acetamide]
- MIC [1, 8]: 8 µg/mL
- MIC ([2]; Mycobacterium intracellulare, ATCC13950, read-out: MIC): 16 µg/mL
- MIC (M. intracellulare F21/12; Mycobacterium intracellulare, read-out: MIC): 0.25 µg/mL
- MIC (M. tuberculosis M-168; Mycobacterium tuberculosis, M168, S. No. 09 Mt-, read-out: MIC): 0.25 µg/mL
- MIC (Moraxella M6; [9]): 0.25 µg/mL (≈ 0.539 µM)
- MIC (M. intracellulare B-78/3; Mycobacterium intracellulare, B78/3, read-out: MIC): 0.25 µg/mL
- MIC 139: 0.25 µg/mL (≈ 0.539 µM)
- MIC (M. tuberculosis SGPGI; [10]): 1 µg/mL
- MIC [3, 8]: 0.25 µg/mL
- MIC (M. tuberculosis PC): 0.25 µg/mL
- MIC [4, 8]: 0.25 µg/mL
- MIC (M. tuberculosis H37Ra): ≤ 0.125 µg/mL
- MIC (M. avium ATCC 49601; Mycobacterium avium, ATCC49601, read-out: MIC): < 0.125 µg/mL
- MIC [5, 8]: 0.25 µg/mL
- MIC (E. faecalis 5B (VRE); [11]): 0.25 µg/mL (≈ 0.539 µM)
- MIC (M. tuberculosis V-3093): ≤ 0.125 µg/mL
- MIC (M. tuberculosis M-149; Mycobacterium tuberculosis, M149, S. No. 15 Mt-, read-out: MIC): 0.25 µg/mL
- MIC (M. tuberculosis ATCC; [10]): ≤ 0.125 µg/mL
- MIC (H. influenzae βIac; [12]): 8 µg/mL (≈ 17.3 µM)
- MIC ([6]; Mycobacterium intracellulare, ATCC35761, read-out: MIC): < 0.12 µg/mL

Compound: O=C(NC[C@H]1CN(c2ccc(N3CCN(c4ccc([N+](=O)[O-])s4)CC3)c(F)c2)C(=O)O1)C(F)F [Compound No. 8, (S)—N-[[3-[3-Fluoro-4-[4-(5-nitro-2-thienyl)-1-piperazinyl]phenyl]-2-oxo-5-oxazolidinyl]methyl]difluoroacetamide]
- MIC (Moraxella M6; Moraxella, M6): 1 µg/mL (≈ 2 µM)
- MIC (E. faecalis 5B (VRE); Enterococcus faecalis, VRE): 2 µg/mL (≈ 4 µM)
- MIC (H. influenzae βIac; Haemophilus influenzae): > 16 µg/mL

Compound: CO[C@H]1/C=C/O[C@@]2(C)Oc3c(C)c(O)c4c(O)c(c(/C=N/N5CCN(C)CC5)c(O)c4c3C2=O)NC(=O)/C(C)=C\C=C\[C@H](C)[C@H](O)[C@@H](C)[C@@H](O)[C@@H](C)[C@H](OC(C)=O)[C@@H]1C [RIF]
- MIC [1]: 0.25 µg/mL
- MIC [2]: 4.0 µg/mL
- MIC (M. intracellulare F21/12): 4.0 µg/mL
- MIC (M. tuberculosis M-168; S. No. 09 Mt-): 16 µg/mL
- MIC (M. intracellulare B-78/3): 0.25 µg/mL
- MIC (M. tuberculosis SGPGI): >32 µg/mL
- MIC [3]: >32 µg/mL
- MIC [4]: 0.5 µg/mL
- MIC (M. avium ATCC 49601): <0.03 µg/mL
- MIC [5]: >32 µg/mL
- MIC (M. tuberculosis M-149; S. No. 15 Mt-): >32 µg/mL
- MIC (M. tuberculosis ATCC): 0.25 µg/mL
- MIC [6]: 0.25 µg/mL

Compound: (S)—N-[[3-[-3-Fluoro-4-[(5-nitro-2-thienyl)-3-methyl-1-piperazinyl]phenyl]-2-oxo-5-oxazolidinyl]methyl]acetamide [Compound No. 10]
- MIC (Moraxella M6; S. No. 60, Moraxella M6): 2 µg/mL
- MIC (E. faecalis 5B (VRE); [7]): 1 µg/mL
- MIC (H. influenzae βIac; s. No. 3, H. influenzae βIac): >16 µg/mL

Compound: O=C(NC[C@H]1CN(c2ccc(N3CCN(c4ccc([N+](=O)[O-])s4)CC3)c(F)c2)C(=O)O1)C(Cl)Cl [compound 9, (S)—N-[[3-[-3-Fluoro-4-[N-1-(5-nitro-2-thienyl)-piperazinyl]phenyl] -2-oxo-5-oxazolidinyl]methyl]dichloroacetamide]
- MIC (Moraxella M6; S. No. 60, Moraxella M6): 1 µg/mL (≈ 1.88 µM)
- MIC (E. faecalis 5B (VRE); [7]): 0.5 µg/mL (≈ 0.939 µM)
- MIC (H. influenzae βIac; s. No. 3, H. influenzae βIac): >16 µg/mL

Compound: C[C@H](Cl)C(=O)NCC1CN(c2ccc(N3CCN(c4ccc([N+](=O)[O-])s4)CC3)c(F)c2)C(=O)O1 (stereo partly drawn) [Compound No. 7, (S)—N-[[3-[3-Fluoro-4-[N-1-{4-(5-nitro-2-thienyl)piperazinyl}]-phenyl]-2-oxo-5-oxazolidinyl]-methyl]-2-chloro-propionamide]
- MIC (Moraxella M6; S. No. 60, Moraxella M6): >8 µg/mL
- MIC (E. faecalis 5B (VRE); [7]): >8 µg/mL
- MIC (H. influenzae βIac; s. No. 3, H. influenzae βIac): >16 µg/mL

Compound: CC(=O)NC[C@H]1CN(c2ccc(N3CCN(c4ccc(C=O)s4)CC3)c(F)c2)C(=O)O1 [Compound No. 2, (S)—N-[[3-[3-Fluoro-4-[4-(5-formyl-2-thienyl)-1-piperazinyl]phenyl]-2-oxo-5-oxazolidinyl]methyl]acetamide]
- MIC (Moraxella M6; [9]): 0.5 µg/mL (≈ 1.12 µM)
- MIC (E. faecalis 5B (VRE); [11]): 0.5 µg/mL (≈ 1.12 µM)
- MIC (H. influenzae βIac; [12]): 16 µg/mL (≈ 35.8 µM)

Compound: CC(=O)NC[C@H]1CN(c2ccc(N3CCN(c4ccc(C=O)o4)CC3)c(F)c2)C(=O)O1 [Compound No. 3, (S)—N-[[3-[3-Fluoro-4-[4-(5-formyl-2-furyl)-1-piperazinyl]phenyl]-2-oxo-5-oxazolidinyl]methyl]acetamide]
- MIC 139: 0.5 µg/mL (≈ 1.16 µM)
- MIC (H. influenzae βIac; [12]): 4 µg/mL (≈ 9.29 µM)
